What was measured:
human TLR7 = target: T1, human TLR7 (Homo sapiens, UniProt Q9NYK1); assay: HEK-Blue hTLR7 NF-κB/AP-1 SEAP reporter cell assay; assay type: cell-based; conditions: HEK-Blue hTLR7 reporter cells, 10 μg/mL to 10 pg/ml, 24 hours, OD at 655 nm; FIGS. 1A, 1B
T1 construct: host or cells: HEK293 (HEK-Blue hTLR7)
T1 sequence (Q9NYK1 27-1049): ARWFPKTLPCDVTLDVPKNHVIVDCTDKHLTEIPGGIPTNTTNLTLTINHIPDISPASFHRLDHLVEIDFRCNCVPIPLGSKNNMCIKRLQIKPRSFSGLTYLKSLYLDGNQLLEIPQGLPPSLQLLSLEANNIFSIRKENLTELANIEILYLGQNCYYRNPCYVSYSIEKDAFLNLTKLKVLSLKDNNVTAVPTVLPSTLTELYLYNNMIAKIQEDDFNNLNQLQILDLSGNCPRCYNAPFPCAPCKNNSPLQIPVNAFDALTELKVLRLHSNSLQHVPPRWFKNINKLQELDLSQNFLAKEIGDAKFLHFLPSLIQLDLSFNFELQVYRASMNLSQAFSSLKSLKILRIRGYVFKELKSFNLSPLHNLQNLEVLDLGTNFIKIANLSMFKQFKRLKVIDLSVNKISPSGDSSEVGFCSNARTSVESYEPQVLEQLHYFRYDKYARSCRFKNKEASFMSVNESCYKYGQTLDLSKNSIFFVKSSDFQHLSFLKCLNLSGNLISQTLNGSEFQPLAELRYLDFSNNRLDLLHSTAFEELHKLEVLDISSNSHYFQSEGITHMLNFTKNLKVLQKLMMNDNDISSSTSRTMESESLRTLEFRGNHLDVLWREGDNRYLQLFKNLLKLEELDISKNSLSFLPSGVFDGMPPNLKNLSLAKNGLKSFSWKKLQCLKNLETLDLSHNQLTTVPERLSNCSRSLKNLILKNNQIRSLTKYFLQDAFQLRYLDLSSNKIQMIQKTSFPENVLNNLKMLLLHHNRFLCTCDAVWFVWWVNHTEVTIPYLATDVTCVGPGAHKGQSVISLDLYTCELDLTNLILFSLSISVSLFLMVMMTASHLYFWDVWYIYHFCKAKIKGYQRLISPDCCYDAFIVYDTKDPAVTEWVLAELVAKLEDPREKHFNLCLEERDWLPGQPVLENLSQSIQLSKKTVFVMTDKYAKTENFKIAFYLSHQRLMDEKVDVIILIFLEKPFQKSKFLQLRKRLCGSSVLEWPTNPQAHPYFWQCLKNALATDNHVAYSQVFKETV
Protocol: (§1) Some conjugated compounds of the invention were tested for their ability to activate TLR7 and TLR2 receptor signaling. Cell-based assays were carried out using TLR7 and TLR2 reporter cell lines (InvivoGen). The reporter cell lines are engineered HEK293 cells, a human embryonic kidney cell line (ATCC, CRL-1573) that stably express either murine TLR7 (HEK-Blue™ mTLR7) or human TLR7 (HEK-Blue™ hTLR7) or murine TLR2 (HEK-Blue™ mTLR2) or human TLR2 (HEK-Blue™ hTLR2) with an NF-κB-inducible secreted embryonic alkaline phosphatase (SEAP) as the reporter gene. The SEAP reporter gene is placed under the control of the NF-κB and AP-inducible promoter. Stimulation with the corresponding TLR ligand activates NF-κB and AP-1, which induces the production of SEAP. Detection of SEAP is measured following culturing cells in HEK-Blue™ Detection media (InvivoGen). HEK-Blue™ Detection contains a SEAP substrate, which upon hydrolysis by SEAP produces a colorimetric change allowing for detection of SEAP as the protein is secreted. […] These assays were carried out using RAW-Blue™ Cells (InvivoGen), derived from RAW 264.7 mouse leukemic monocytic macrophage cell line (ATCC, CRL 2278) stably overexpressing a NF-κB/AP-1 inducible SEAP reporter constructs.
(§2) To perform the assay, cells were seeded on 96 well microliter plates at 50,000 or 100,000 cells per well for HEK-Blue™ Cells and RAW-Blue™ Cells respectively, and cultured at 37° C. in the presence of the conjugated compounds. The conjugated compounds were prepared as follows: First, stock solutions of the small molecule conjugated compounds of the invention were prepared in ethanol or water to a concentration of 10 mg/ml. A working dilution of the conjugated TLR7-TLR2 small molecules was made up in water and added to cells at a final range of concentrations from 10 μg/mL to 10 pg/ml. The working dilutions of the conjugated TLR7-TLR2 small molecules as the stated concentrations were directly added to the reporter cell lines and incubated at 37° C. for 24 hours. After 24 hours of incubation, the effect on reporter gene activity was determined by reading the OD at 655 nm using iMark™ Microplate Reader (BIO-RAD).
(§3) The conjugated compounds were tested alone for their ability to specifically activate TLR7 and TLR2, alongside the known TLR7 activators R848 or CL264 (InvivoGen) and the TLR2 agonists Pam2CSK4 or Pam3CSK4 (InvivoGen). The specificity of the TLR activity was determined by use of reporter cell lines to the other TLRs (data not shown). […] The molecules show a tendency to activate mouse TLR7 with greater sensitivity than human TLR7. […] Furthermore, dose-dependent responses of the conjugated compounds indicate significant TLR activities of TLR7 and TLR2 compared to the corresponding controls.

murine TLR2 = target: T2, murine TLR2 (Mus musculus, UniProt Q9QUN7); assay: HEK-Blue mTLR2 NF-κB/AP-1 SEAP reporter cell assay; assay type: cell-based; conditions: HEK-Blue mTLR2 reporter cells, 10 μg/mL to 10 pg/ml, 24 hours, OD at 655 nm; FIG. 4
T2 construct: host or cells: HEK293 (HEK-Blue mTLR2)
T2 sequence (Q9QUN7 25-784): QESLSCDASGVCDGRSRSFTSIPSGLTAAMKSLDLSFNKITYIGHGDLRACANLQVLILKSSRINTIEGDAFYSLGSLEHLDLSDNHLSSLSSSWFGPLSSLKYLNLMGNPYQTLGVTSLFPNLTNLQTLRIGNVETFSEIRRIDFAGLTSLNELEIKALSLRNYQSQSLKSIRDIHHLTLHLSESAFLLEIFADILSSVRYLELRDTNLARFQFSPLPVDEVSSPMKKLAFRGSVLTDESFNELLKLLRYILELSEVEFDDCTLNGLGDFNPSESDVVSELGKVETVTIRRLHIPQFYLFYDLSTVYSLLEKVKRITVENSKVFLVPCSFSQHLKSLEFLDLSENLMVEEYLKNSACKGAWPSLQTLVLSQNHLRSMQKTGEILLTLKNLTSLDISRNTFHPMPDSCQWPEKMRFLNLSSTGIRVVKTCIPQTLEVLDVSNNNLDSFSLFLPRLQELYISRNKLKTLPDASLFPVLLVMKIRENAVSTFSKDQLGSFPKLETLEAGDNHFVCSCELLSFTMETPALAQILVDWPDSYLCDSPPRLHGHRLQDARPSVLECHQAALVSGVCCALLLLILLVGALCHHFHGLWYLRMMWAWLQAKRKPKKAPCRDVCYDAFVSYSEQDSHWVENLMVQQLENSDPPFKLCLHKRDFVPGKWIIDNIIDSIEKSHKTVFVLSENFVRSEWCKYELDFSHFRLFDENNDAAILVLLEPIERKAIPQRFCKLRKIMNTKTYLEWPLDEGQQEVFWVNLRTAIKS
Protocol: as §1, §2, §3

human TLR2 = target: T3, human TLR2 (Homo sapiens, UniProt O60603); assay: HEK-Blue hTLR2 NF-κB/AP-1 SEAP reporter cell assay; assay type: cell-based; conditions: HEK-Blue hTLR2 reporter cells, 10 μg/mL to 10 pg/ml, 24 hours, OD at 655 nm; FIGS. 3A, 3B
T3 construct: host or cells: HEK293 (HEK-Blue hTLR2)
T3 sequence (O60603 21-784): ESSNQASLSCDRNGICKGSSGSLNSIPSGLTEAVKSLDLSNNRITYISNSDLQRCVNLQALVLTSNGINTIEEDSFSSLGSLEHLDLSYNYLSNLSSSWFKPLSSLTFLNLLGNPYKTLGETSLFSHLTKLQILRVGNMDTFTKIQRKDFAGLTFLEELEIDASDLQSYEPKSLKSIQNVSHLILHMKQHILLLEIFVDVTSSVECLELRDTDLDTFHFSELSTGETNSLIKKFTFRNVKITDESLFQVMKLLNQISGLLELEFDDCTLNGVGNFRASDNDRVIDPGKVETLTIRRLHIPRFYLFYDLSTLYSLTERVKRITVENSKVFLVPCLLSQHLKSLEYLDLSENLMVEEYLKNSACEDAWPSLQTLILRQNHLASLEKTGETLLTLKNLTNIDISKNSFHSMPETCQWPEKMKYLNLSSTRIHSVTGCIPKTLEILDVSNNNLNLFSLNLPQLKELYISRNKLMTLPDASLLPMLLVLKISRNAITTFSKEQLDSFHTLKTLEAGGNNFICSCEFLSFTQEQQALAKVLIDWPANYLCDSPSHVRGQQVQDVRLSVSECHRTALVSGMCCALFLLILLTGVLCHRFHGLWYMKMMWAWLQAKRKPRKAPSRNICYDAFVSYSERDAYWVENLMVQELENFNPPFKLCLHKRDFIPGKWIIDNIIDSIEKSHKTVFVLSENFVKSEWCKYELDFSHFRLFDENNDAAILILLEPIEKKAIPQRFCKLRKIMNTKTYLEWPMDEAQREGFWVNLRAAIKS
Protocol: as §1, §2, §3

[1] = system: NF-κB in RAW-Blue™ Cells (RAW 264.7, endogenous TLR7 and TLR2); assay: RAW-Blue Cells NF-κB/AP-1 inducible SEAP reporter assay; assay type: cell-based, mouse; conditions: murine monocytic macrophage cell line RAW 264.7, 24 hours, OD at 655 nm; FIGS. 5A, 5B
Protocol: as §1, §2, §3

Question: Which “ability to activate TLR7 receptors (human TLR7)” value (human TLR7) does the source give for `CCCCCCCCCCCCCCCC(=O)OCC(CSC[C@H](N)C(=O)Nc1ccc(Cn2c(O)nc3c(N)nc(NCCCC)nc32)cc1)OC(=O)CCCCCCCCCCCCCCC` (mixture of isomers) [CL401, (R)-3-(2-amino-3-(4-((6-amino-2-(butylamino)-8-hydroxy-9H-purin-9-yl)methyl)phenylamino)-3-oxopropylthio)propane-1,2-diyl dipalmitate] here?
Answer: activate TLR7 receptors

Question: What about the “ability to activate TLR2 receptor (murine TLR2)” value (murine TLR2) of the same compound?
Answer: activate TLR2 receptor

Question: And the “ability to activate TLR2 receptor (human TLR2)” value (human TLR2)?
Answer: activate TLR2 receptor

Question: What about the “induction of NF-κB in RAW-Blue cells” value [1] of the same compound?
Answer: activate NF-κB

Source: patent US9567336B2, “Conjugated TLR7 and/or TLR8 and TLR2 agonists” (CAYLA, priority 2012, dated 2017)
